PubChem BioAssay (NCI)
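At the GI50, growth is halved. At the TGI there is no net growth.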

Key:
Assay in all cases: NCI-60 cell line screen, 384-well format
CCRF-CEM leukemia = tested on: CCRF-CEM leukemia
HCT-15 colon = tested on: HCT-15 colon
HS 578T breast = tested on: HS 578T breast
HT29 colon = tested on: HT29 colon
M14 melanoma = tested on: M14 melanoma
MALME-3M melanoma = tested on: MALME-3M melanoma
MDA-MB-231 breast = tested on: MDA-MB-231 breast
MDA-MB-435 melanoma = tested on: MDA-MB-435 melanoma
RXF 393 renal = tested on: RXF 393 renal
SK-MEL-5 melanoma = tested on: SK-MEL-5 melanoma
SNB-75 CNS = tested on: SNB-75 CNS
U251 glioblastoma = tested on: U251 glioblastoma
UACC-257 melanoma = tested on: UACC-257 melanoma

SMILES: C=CC(=O)N1CCN(CCCn2c(=O)c(-c3c(Cl)c(OC)cc(OC)c3Cl)cc3cnc(NC)nc32)CC1
- GI50 (CCRF-CEM leukemia): 1.51 µM
- TGI (CCRF-CEM leukemia): 3.29 µM
- GI50 (HCT-15 colon): 2.37 µM
- TGI (HCT-15 colon): 14.9 µM
- GI50 (HS 578T breast): 0.327 µM
- TGI (HS 578T breast): 2.35 µM
- GI50 (HT29 colon): 4.61 µM
- TGI (HT29 colon): 16.8 µM
- GI50 (M14 melanoma): 2.11 µM
- TGI (M14 melanoma): 16.1 µM
- GI50 (MALME-3M melanoma): 1.92 µM
- TGI (MALME-3M melanoma): 9.84 µM
- GI50 (MDA-MB-231 breast): 3.94 µM
- TGI (MDA-MB-231 breast): 14.9 µM
- GI50 (MDA-MB-435 melanoma): 4.33 µM
- TGI (MDA-MB-435 melanoma): 14.7 µM
- GI50 (RXF 393 renal): 0.665 µM
- TGI (RXF 393 renal): 3.03 µM
- GI50 (SK-MEL-5 melanoma): 2.35 µM
- TGI (SK-MEL-5 melanoma): 13.1 µM
- GI50 (SNB-75 CNS): 0.211 µM
- TGI (SNB-75 CNS): 4.88 µM
- GI50 (U251 glioblastoma): 3.72 µM
- TGI (U251 glioblastoma): 16 µM
- GI50 (UACC-257 melanoma): 4.44 µM
- TGI (UACC-257 melanoma): 16 µM
